Values of other authors in patent publication US20240316039A1, “METHOD OF REDUCING ELEVATED INTRAOCULAR PRESSURE” (SUN PHARMA ADVANCED RESEARCH COMPANY LIMITED, priority 2021, published 2024).
Where two headings read alike, the source gives them in different places.

Test system: ocular hypertensive eyes and normotensive eyes

In the case of `Brc1c(NC2=NCCN2)ccc2nccnc12` [Brimonidine], the duration of effect (in vivo) is given as “less than 12 hours”, the “time of peak effect after instillation” value (in vivo) is given as no more than 2 h and the “peak IOP reduction” value (normotensive eyes (less than 21 mm Hg)) is given as 6-18%. The “peak IOP reduction” value (ocular hypertensive eyes) was 20-25%.
